Article PMC4666006 (European journal of cancer (Oxford, England : 1990), 2013)
Values belong to the compound of their own block, whether it stands above or below them.

Assays:
patients with RCC = conditions: cited from earlier work
[1] = Pharmacokinetic assessments; format: in vivo, patients; conditions: for AUC(0-t) / Cmax / Tmax: human, serum
[2] = test system: patients with advanced renal cell cancer; conditions: ongoing randomised phase III trial; cited from earlier work
[3] = test system: patients with advanced RCC; conditions: phase III; cited from earlier work
[4] = test system: patients with advanced RCC; assay: 3 + 3 dose-escalation: dose-limiting toxicities and recommended phase II dose; format: in vivo
[5] = test system: patients with advanced RCC; assay: Treatment-emergent adverse events; format: in vivo; conditions: all 27 patients
[6] = cited from earlier work
[7] = test system: patients with advanced RCC; conditions: cited from earlier work

SMILES: CCN(CC)CCNC(=O)c1c(C)[nH]c(/C=C2\C(=O)Nc3ccc(F)cc32)c1C [sunitinib]
- Grade 3 hypertension, patients (patients with RCC): 8%
- Grade 4 hypertension, patients (patients with RCC): 0%
- Incidence of hypertension (patients with RCC): 24%

- Ratio of sirolimus AUC0–last /temsirolimus AUC0–last, mean (SD) ([1]; day 22, Temsirolimus 15 mg/week): 1.26 (0.67)
- Ratio of sirolimus AUC0–last /temsirolimus AUC0–last, mean (SD) ([1]; day 22, Temsirolimus 25 mg/week): 1.48 (0.66)
- AUC(0-t) ([1]; intravenous, 15 mg/week): 3560 ng·h/mL
- Cmax ([1]; intravenous, 15 mg/week): 51.3 ng/mL
- Tmax ([1]; intravenous, 15 mg/week): 3.18 h
- AUC(0-t) ([1]; intravenous, 25 mg/week): 6570 ng·h/mL
- Cmax ([1]; intravenous, 25 mg/week): 93.8 ng/mL
- Tmax ([1]; intravenous, 25 mg/week): 1.81 h
SMILES: CO[C@H]1C[C@@H]2CC[C@@H](C)[C@@](O)(O2)C(=O)C(=O)N2CCCC[C@H]2C(=O)O[C@H]([C@H](C)C[C@@H]2CC[C@@H](O)[C@H](OC)C2)CC(=O)[C@H](C)/C=C(\C)[C@@H](O)[C@@H](OC)C(=O)[C@H](C)C[C@H](C)/C=C/C=C/C=C/1C [Sirolimus, sirolimus]

SMILES: CNC(=O)c1cc(Oc2ccc(NC(=O)Nc3ccc(Cl)c(C(F)(F)F)c3)cc2)ccn1 [sorafenib]
- Grade 3/4 hypertension, patients (patients with RCC): 4–11%
- Incidence of hypertension (patients with RCC): 17–29%
- progression-free survival [2]: 9.1 months

SMILES: Cc1ccc(Nc2nccc(N(C)c3ccc4c(C)n(C)nc4c3)n2)cc1S(N)(=O)=O [pazopanib]
- Grade 3 hypertension, patients (patients with RCC): 4%
- Grade 4 hypertension, patients (patients with RCC): 0%
- Incidence of hypertension (patients with RCC): 40%

SMILES: CNC(=O)c1ccccc1Sc1ccc2c(/C=C/c3ccccn3)n[nH]c2c1 [axitinib]
- Grade 3/4 hypertension, patients (patients with RCC): 16%
- Incidence of hypertension (patients with RCC): 40%

SMILES: CO[C@H]1C[C@@H]2CC[C@@H](C)[C@@](O)(O2)C(=O)C(=O)N2CCCC[C@H]2C(=O)O[C@H]([C@H](C)C[C@@H]2CC[C@@H](OC(=O)C(C)(CO)CO)[C@H](OC)C2)CC(=O)[C@H](C)/C=C(\C)[C@@H](O)[C@@H](OC)C(=O)[C@H](C)C[C@H](C)/C=C/C=C/C=C/1C [temsirolimus]
- Fatigue, temsirolimus-related TEAE [3]: 51%
- Recommended phase II dose (RP2D), temsirolimus ([4]; intravenously, in combination with tivozanib): 25 mg/week
- Patients with ≥1 dose reduction/interruption of the drug [5]: 63%
- AUC(0-t) ([1]; intravenous, 15 mg/week): 3190 ng·h/mL
- Cmax ([1]; intravenous, 15 mg/week): 164 ng/mL
- Tmax ([1]; intravenous, 15 mg/week): 2.32 h
- AUC(0-t) ([1]; intravenous, 25 mg/week): 4240 ng·h/mL
- Cmax ([1]; intravenous, 25 mg/week): 200 ng/mL
- Tmax ([1]; intravenous, 25 mg/week): 1.81 h

SMILES: COc1cc2nccc(Oc3ccc(NC(=O)Nc4cc(C)on4)c(Cl)c3)c2cc1OC [tivozanib]
- Recommended phase II dose (RP2D), tivozanib ([4]; orally, 3 weeks on/1 week off, in combination with temsirolimus): 1.5 mg/day
- half-life [6]: ~ 4.5 d
- Patients with ≥1 dose reduction/interruption of the drug [5]: 59%
- Tmax ([1]; oral, […]): 17.3 h
- progression-free survival [2]: 11.9 months
- Hypertension, treatment-related event, patients ([7]; phase II, advanced RCC): 45%
- Fatigue, treatment-related event, patients ([7]; tivozanib monotherapy, phase II, advanced RCC): 8%
- Grade 3 hypertension, patients ([7]; tivozanib phase II trial): 11%
- Grade 4 hypertension, patients ([7]; tivozanib phase II trial): 1%
